Data published in US20160311882A1, “Novel Compound for Treatment of Severe Hypoglycemia” (ELI LILLY AND COMPANY, priority 2013, published 2016).
Read-outs that look alike come from different tables or passages of the source. Non-standard residues stand in square brackets, D forms with d. Residues, ends and D or L forms follow the SMILES beside them. Aib = CC(C)(N)C(=O)O

Assays:
[1] = type: physicochemical
Experimental: (§1) The compound of SEQ ID NO: 2 is dissolved in H2O to a 10 mg/mL concentration (peptide content), filtered through a 0.22 μm filter (Millex, SLGV004SL), and then diluted to 1 mg/mL in Buffer P5 (10 mM Histidine, 150 mM NaCl in H20, pH 5.0) or Buffer P6 (10 mM Histidine, 150 mM NaCl in H20, pH 6.0). Each solution is transferred to three vials and autoclaved. Samples are then maintained at 4° C., 30° C. and 40° C. Samples are visually assessed at different time points for turbidity and phase separation. Stability of the compound is assessed by analytical reverse phase HPLC (RP-HPLC) on a Phenomenex Aeris Widepore, 3.6 μm, XB-C18 4.6×100 mm column (P/NO 00D-4482-E0) heated at 60° C. with a AB (A=0.05% TFA/H2O; B=0.04% TFA/acetonitrile) gradient of 5% B isocratic over 5 min, 5 to 25% B over 20 minutes, 25 to 30% B over 30 min, and 30 to 45% B over 10 min with a flow rate of 1.2 mL/min (wavelength of 220 ηm).

[2] = Chemical stability by RP-HPLC (% main peak); type: physicochemical; details: for 4° C. % Main Peak / 30° C. % Main Peak / 40° C. % Main Peak: 4 weeks
Experimental: as §1
The compound of SEQ ID NO: 2 also maintains chemical stability at pH 5 (Buffer P5) and pH 6 (Buffer P6) when maintained at 4° C., 30° C. and 40° C. for 4 weeks.

[3] = Physical stability test using Thioflavin T binding assay (fibrillation); type: physicochemical; details: 25° C.; for Thioflavin T fluorescence t = 0 h / Thioflavin T fluorescence t = 48 h / Thioflavin T fluorescence t = 96 h: 1 mg/mL, stirred 300 rpm
Experimental: Fibrillation is a common problem when glucagon is formulated in aqueous solution. To assess the level of fibrillation of the compound of the present invention, a Thioflavin T binding assay is performed.
All samples are mechanically stressed at 25° C. in a magnetic stir plate set at 300 rpm. […] Raw data is collected with Softmax Pro 5.4.1 (Molecular Devices) and imported to Excel.

blood glucose levels = experiment: Effects of compound on blood glucose levels in C57/Bl6 male mice; type: in vivo; details: for Blood glucose levels: mean ± SEM of 4 mice
Experimental: To determine the effects of the compound of SEQ ID NO: 2 on blood glucose levels, the compound is administered to C57/B 16 mice. Three month old male C57BL6 mice (Harlan Laboratories) are used Animals are individually housed in a temperature-controlled (24° C.) facility with a 12 hour light/dark cycle, and have free access to food and water. After 1 week acclimation to the facility, mice are randomized to treatment groups (n=4/group). Test compound is formulated in Buffer 2 (see Physical stability test using Thioflavin T binding assay). On the morning of test, food is removed at 08:00 AM. Two hours after food is removed, the test compound is given subcutaneously at 0, 0.3, 1, 3 or 10 μg/kg doses. Blood glucose is measured at time 0, 15, 30, 60 and 120 minutes after test compound administration with an ACCU-CHECK® (Roche Diagnostics) glucometer. […] Results are expressed as mean±standard error mean (SEM) of 4 mice per group.
Blood glucose levels at 10 μg/kg of compound of SEQ ID NO: 2 is taken as the maximum value.

[4] = Buffer 1 (20 mM Histidine, pH 6.0)
[5] = Buffer 2 (10 mM Histidine, 150 nM NaCl, pH 6.0)
[6] = Buffer 3 (10 mM Histidine, 300 mM sorbitol, pH 6.0)
[7] = Buffer 4 (10 mM Histidine, 0.02% Tween 80, pH 6.0)
[8] = Buffer 5 (10 mM Histidine, 300 mM sucrose, pH 6.0)

CC(C)C[C@H](NC(=O)[C@H](Cc1c[nH]c2ccccc12)NC(=O)[C@H](CCC(=O)O)NC(=O)[C@@H](NC(=O)[C@H](Cc1ccccc1)NC(=O)[C@H](CCC(=O)O)NC(=O)[C@H](CCC(N)=O)NC(=O)[C@H](C)NC(=O)[C@H](CCCCN)NC(=O)[C@H](CCCCN)NC(=O)C(C)(C)NC(=O)[C@H](CC(=O)O)NC(=O)[C@H](CC(C)C)NC(=O)[C@H](Cc1ccc(O)cc1)NC(=O)[C@H](CCCCN)NC(=O)[C@H](CO)NC(=O)[C@H](Cc1ccc(O)cc1)NC(=O)[C@H](CC(=O)O)NC(=O)[C@H](CO)NC(=O)[C@@H](NC(=O)[C@H](Cc1ccccc1)NC(=O)[C@@H](NC(=O)CNC(=O)[C@H](CCC(N)=O)NC(=O)[C@H](CO)NC(=O)[C@@H](N)Cc1ccc(O)cc1)[C@@H](C)O)[C@@H](C)O)C(C)C)C(=O)N[C@@H](CC(C)C)C(=O)N[C@@H](CCCCN)C(=O)N[C@H](C(=O)NCC(=O)N1CCC[C@H]1C(=O)N[C@@H](CO)C(=O)N[C@@H](CO)C(=O)NCC(=O)N[C@@H](C)C(=O)N1CCC[C@H]1C(=O)N1CCC[C@H]1C(=O)N[C@@H](CCCCN)C(=O)N[C@@H](CO)C(=O)N[C@@H](CCCCN)C(N)=O)[C@@H](C)O [SEQ ID NO: 2] (H-YSQGTFTSDYSKYLD[Aib]KKAQEFVEWLLKTGPSSGAPPKSK-NH2; N-terminus assumed)
solubility [1]: maintains good solubility
Physical appearance ([1]; 4° C., 30° C. and 40° C., pH 5 and pH 6, over 4 weeks): clear to colorless, with no opalescences and no particles
30° C. vs 4° C. Recovery 4 wk ([1]; Buffer P5 (pH 5.0)): 102%
40° C. vs 4° C. Recovery 4 wk ([1]; Buffer P5 (pH 5.0)): 99%
30° C. vs 4° C. Recovery 4 wk ([1]; Buffer P6 (pH 6.0)): 101%
40° C. vs 4° C. Recovery 4 wk ([1]; Buffer P6 (pH 6.0)): 103%
% Main Peak Day 0 ([2]; Buffer P5 (pH 5)): 96.53%
4° C. % Main Peak ([2]; Buffer P5 (pH 5)): 96.93%
30° C. % Main Peak ([2]; Buffer P5 (pH 5)): 93.82%
40° C. % Main Peak ([2]; Buffer P5 (pH 5)): 91.59%
main peak changes ([2]; Buffer P5, pH 5 at 4-wk 30° C. vs 4° C.): less than 4%
main peak changes ([2]; Buffer P5, pH 5 at 4-wk 40° C. vs 4° C.): < 6%
% Main Peak Day 0 ([2]; Buffer P6 (pH 6)): 97.00%
4° C. % Main Peak ([2]; Buffer P6 (pH 6)): 95.89%
30° C. % Main Peak ([2]; Buffer P6 (pH 6)): 95.17%
40° C. % Main Peak ([2]; Buffer P6 (pH 6)): 90.57%
main peak changes ([2]; Buffer P6, pH 6 at 4-wk 30° C. vs 4° C.): < 1%
main peak changes ([2]; Buffer P6, pH 6 at 4-wk 40° C. vs 4° C.): < 6%
fibrillation as measured by the Thioflavin T binding assay ([3]; pH 6, 96 hours, mechanical stress): did not demonstrate fibrillation
Thioflavin T fluorescence t = 0 h [3, 4]: 84.5 fluorescence units
Thioflavin T fluorescence t = 48 h [3, 4]: 89.5 fluorescence units
Thioflavin T fluorescence t = 96 h [3, 4]: 98.1 fluorescence units
Thioflavin T fluorescence t = 0 h [3, 5]: 188.4 fluorescence units
Thioflavin T fluorescence t = 48 h [3, 5]: 211.6 fluorescence units
Thioflavin T fluorescence t = 96 h [3, 5]: 231.4 fluorescence units
Thioflavin T fluorescence t = 0 h [3, 6]: 83.6 fluorescence units
Thioflavin T fluorescence t = 48 h [3, 6]: 90.9 fluorescence units
Thioflavin T fluorescence t = 96 h [3, 6]: 101.7 fluorescence units
Thioflavin T fluorescence t = 0 h [3, 7]: 70.1 fluorescence units
Thioflavin T fluorescence t = 48 h [3, 7]: 76.9 fluorescence units
Thioflavin T fluorescence t = 96 h [3, 7]: 83.9 fluorescence units
Thioflavin T fluorescence t = 0 h [3, 8]: 86.3 fluorescence units
Thioflavin T fluorescence t = 48 h [3, 8]: 87.5 fluorescence units
Thioflavin T fluorescence t = 96 h [3, 8]: 98.9 fluorescence units
Blood glucose levels (blood glucose levels; 0.3 μg/kg subcutaneously, 0 minutes): 140.2 ± 2.4 mg/dL
Blood glucose levels (blood glucose levels; 0.3 μg/kg subcutaneously, 15 minutes): 185.6 ± 7.5 mg/dL
Blood glucose levels (blood glucose levels; 0.3 μg/kg subcutaneously, 30 minutes): 193.3 ± 6.0 mg/dL
Blood glucose levels (blood glucose levels; 0.3 μg/kg subcutaneously, 60 minutes): 167.4 ± 6.6 mg/dL
Blood glucose levels (blood glucose levels; 0.3 μg/kg subcutaneously, 120 minutes): 147.0 ± 5.1 mg/dL
Blood glucose levels (blood glucose levels; 1 μg/kg subcutaneously, 0 minutes): 140.0 ± 2.0 mg/dL
Blood glucose levels (blood glucose levels; 1 μg/kg subcutaneously, 15 minutes): 200.6 ± 5.8 mg/dL
Blood glucose levels (blood glucose levels; 1 μg/kg subcutaneously, 30 minutes): 204.8 ± 8.9 mg/dL
Blood glucose levels (blood glucose levels; 1 μg/kg subcutaneously, 60 minutes): 161.9 ± 4.0 mg/dL
Blood glucose levels (blood glucose levels; 1 μg/kg subcutaneously, 120 minutes): 145.6 ± 3.9 mg/dL
Blood glucose levels (blood glucose levels; 3 μg/kg subcutaneously, 0 minutes): 141.5 ± 3.0 mg/dL
Blood glucose levels (blood glucose levels; 3 μg/kg subcutaneously, 15 minutes): 245.5 ± 10.0 mg/dL
Blood glucose levels (blood glucose levels; 3 μg/kg subcutaneously, 30 minutes): 265.6 ± 13.3 mg/dL
Blood glucose levels (blood glucose levels; 3 μg/kg subcutaneously, 60 minutes): 188.1 ± 9.3 mg/dL
Blood glucose levels (blood glucose levels; 3 μg/kg subcutaneously, 120 minutes): 143.9 ± 3.8 mg/dL
Blood glucose levels (blood glucose levels; 10 μg/kg subcutaneously, 0 minutes): 147.7 ± 4.4 mg/dL
Blood glucose levels (blood glucose levels; 10 μg/kg subcutaneously, 15 minutes): 252.3 ± 11.2 mg/dL
Blood glucose levels (blood glucose levels; 10 μg/kg subcutaneously, 30 minutes): 271.8 ± 13.8 mg/dL
Blood glucose levels (blood glucose levels; 10 μg/kg subcutaneously, 60 minutes): 202.1 ± 7.9 mg/dL
Blood glucose levels (blood glucose levels; 10 μg/kg subcutaneously, 120 minutes): 146.3 ± 5.5 mg/dL
ED50 (blood glucose levels; calculated on the 30 minute glucose measurements, 10 μg/kg taken as maximum, subcutaneous): 1.36 µg/kg
